Test results as given in PMC7600788, “Sequence Permutation Generates Peptides with Different Antimicrobial and Antibiofilm Activities” (Pharmaceuticals, 2020).
No end group written: not given here.

Legend:
E. coli ATCC 25922 = format: cell-based, Escherichia coli; details: ATCC 25922
Method: (§1) To gain additional insight, we also compared the effects of physiological saline and human serum on the antibacterial activities of WW291-WW298 using both E. coli and S. aureus (Table 3). In our assays, salts and serum were present during the entire course of the experiment. […] Thus, WW295 and WW298 stand out in terms of activity robustness (bold in Table 3).
(§2) The antibacterial activity of peptides was evaluated using a standard broth microdilution protocol with minor modifications as previously described. In brief, logarithmic phase bacterial cultures (i.e., optical density at 600 nm ≈ 0.5) were diluted to OD600~0.001 and partitioned into a 96-well polystyrene microplate at 90 μL per well. After treatment with 10 μL of peptide solutions two-fold diluted to various concentrations, microplates were incubated at 37 °C overnight and read on a ChroMate 4300 Microplate Reader at 630 nm (GMI, Ramsey, MN). […] Minimal bactericidal concentration (MBC) was determined by plating the clear wells at MIC or above. The peptide concentration that caused no bacterial growth on the petri dish is MBC.

[1] = system: monkey kidney Vero E6 cells; format: cell-based
Method: Peptides were assayed for potential in vitro toxicity against human keratinocytes (HaCaT) and THP-1 cells as previously described. THP-1 monocytes were differentiated into macrophages by adding 30 ng/mL of phorbol 12-myristate 13-acetate (PMA; Sigma-Aldrich) to RPMI 1640 supplemented with 10% fetal calf serum culture (FCS) medium for 16 h. Briefly, cells were seeded at a density of 3 × 10^4 per well in a tissue culture 96-well plate in DMEM/RPMI supplemented with 10% fetal bovine serum (FBS), and incubated at 37 °C in a 5% CO2 atmosphere for 24 h. African green monkey kidney Vero E6 cells were cultivated in EMEM in the same manner. Before antimicrobial treatment, wells were replaced with serum free media and treated with peptides at different concentrations for one hour. After incubation, the cells were washed and incubated with 100 μL of DMEM media containing 20 μL of 3-(4,5-dimethylthiazol-2-yl)-5-(3-carboxymethoxyphenyl)-2-(4-sulfophenyl)-2H-tetrazolium (MTS) reagent for two hours at 37 °C. […] Absorbance readings at 492 nm were taken using a ChroMate microplate reader (GMI, Ramsey, MN, USA).

B. subtilis 167 = format: cell-based, Bacillus subtilis; details: 167
Method: (§3) The antimicrobial activity spectrum of the WW peptide series was performed on a panel of Gram-positive and -negative bacteria using the standard broth micro-dilution method with minor modifications as described. […] There was a small change in the case of Pseudomonas aeruginosa and Acinetobacter baumannii up to two-fold. Four-fold changes were found for Staphylococcus aureus, Staphylococcus epidermidis, Escherichia coli, and Bacillus subtilis. However, we observed over eight-fold MIC changes for Klebsiella pneumoniae and vancomycin-resistant enterococcus (VRE). […] We also observed more than eight-fold changes in minimal bacterial killing concentrations.
as §2

S. aureus Mu50 = format: cell-based, Staphylococcus aureus; details: Mu50
Method: as §3, §2

[2] = system: human keratinocytes (HaCaT); test: MTS cytotoxicity assay; format: cell-based; details: serum free media, one hour treatment
Method: (§4) Peptides were assayed for potential in vitro toxicity against human keratinocytes (HaCaT) and THP-1 cells as previously described. THP-1 monocytes were differentiated into macrophages by adding 30 ng/mL of phorbol 12-myristate 13-acetate (PMA; Sigma-Aldrich) to RPMI 1640 supplemented with 10% fetal calf serum culture (FCS) medium for 16 h. Briefly, cells were seeded at a density of 3 × 10^4 per well in a tissue culture 96-well plate in DMEM/RPMI supplemented with 10% fetal bovine serum (FBS), and incubated at 37 °C in a 5% CO2 atmosphere for 24 h. African green monkey kidney Vero E6 cells were cultivated in EMEM in the same manner. Before antimicrobial treatment, wells were replaced with serum free media and treated with peptides at different concentrations for one hour. After incubation, the cells were washed and incubated with 100 μL of DMEM media containing 20 μL of 3-(4,5-dimethylthiazol-2-yl)-5-(3-carboxymethoxyphenyl)-2-(4-sulfophenyl)-2H-tetrazolium (MTS) reagent for two hours at 37 °C. The treatment time was one hour in the case of Vero E6 cells. Absorbance readings at 492 nm were taken using a ChroMate microplate reader (GMI, Ramsey, MN, USA).

[3] = system: PMA differentiated THP-1 cells; test: MTS cytotoxicity assay; format: cell-based; details: PMA differentiated THP-1, serum free media, one hour treatment
Method: as §4

E. coli K12 = format: cell-based, Escherichia coli; details: K12
Method: as §3, §2

S. aureus USA300 = format: cell-based, Staphylococcus aureus; details: USA300
Method: as §2

S. aureus USA300 LAC = format: cell-based, Staphylococcus aureus; details: USA300
Method: as §1, §2

P. aeruginosa PAO1 = format: cell-based, Pseudomonas aeruginosa; details: PAO1
Method: as §3, §2

A. baumannii B28-16 = format: cell-based, Acinetobacter baumannii; details: B28-16
Method: as §3, §2

chicken red blood cells = test: Hemolytic assay; format: cell-based
Method: (§5) Hemolytic assays of peptides were performed as previously described. Briefly, human red blood cells (hRBCs) obtained from UNMC Blood Bank, or chicken or porcine blood cells purchased from commercial sources as previously described, were washed three times with phosphate buffer saline (PBS) and diluted to a 2% solution (V/v). After peptide treatment, incubation at 37 °C for one hour, and centrifugation at 13,000 rpm, aliquots of the supernatant were carefully transferred to a fresh 96-well microplate. The amount of hemoglobin released was measured at 545 nm. The percent lysis was calculated by assuming 100% release when human blood cells were treated with 2% Triton X-100, and 0% release when incubated with PBS buffer. The peptide concentration that caused 50% lysis of hRBCs is defined as HC50.

human red blood cells = test: Hemolytic assay; format: cell-based; details: red cells of human
Method: as §5

Pig RBC = test: Hemolytic assay; format: cell-based
Method: as §5

E. faecium VRE = format: cell-based; details: VRE
Method: as §3, §2

| Sequence | MIC, +150 mM NaCl (E. coli ATCC 25922) [µM] | MIC, +10% Human Serum (E. coli ATCC 25922) [µM] | MIC, TSB (E. coli ATCC 25922) [µM] | Vero Cells, concentration that caused 50% cell death (LC50) [1] [µM] | Minimal Inhibitory Concentration (MIC), BS (B. subtilis 167) [µM] | Minimal Inhibitory Concentration (MIC), SA (S. aureus Mu50) [µM] | HaCaT, concentration that caused 50% cell death (LC50) [2] [µM] | THP-1, concentration that caused 50% cell death (LC50) [3] [µM] | Minimal Inhibitory Concentration (MIC), EC (E. coli K12) [µM] | MBC, USA300 (S. aureus USA300) [µM] | MIC, +150 mM NaCl (S. aureus USA300 LAC) [µM] | MIC, +10% Human Serum (S. aureus USA300 LAC) [µM] | MIC, TSB (S. aureus USA300 LAC) [µM] | Minimal Inhibitory Concentration (MIC), PA (P. aeruginosa PAO1) [µM] | Minimal Inhibitory Concentration (MIC), AB (A. baumannii B28-16) [µM] | Chicken RBC, concentration that caused 50% red blood cell lysis (HC50) (chicken red blood cells) [µM] | Human RBC, concentration that caused 50% red blood cell lysis (HC50) (human red blood cells) [µM] | Pig RBC, concentration that caused 50% red blood cell lysis (HC50) (Pig RBC) [µM] | Minimal Inhibitory Concentration (MIC), VRE (E. faecium VRE) [µM] |
| --- | --- | --- | --- | --- | --- | --- | --- | --- | --- | --- | --- | --- | --- | --- | --- | --- | --- | --- | --- |
| WWLRKIWW [WW292] | >25 | >25 | 12.5 | >100 | 12.5 | 12.5 | >100 | >100 | 25 | >25 | 6.2 | >25 | 6.2 | 25 | 12.5 | >100 | 175 | >100 | >50 |
| KIWWWWLR [WW296] | 25 | >25 | 3.1 to 6.2 | >100 | 12.5 | 3.1 | 100 | 35 | 6.2 to 12.5 | 6.2 | 1.6 | – | 1.6 | 50 | 12.5 | 50 | 103 | >100 | 25 |
| WWWWLRKI [WW298] | 12.5 | >25 | 12.5 | 100 | 6.25 to 12.5 | 3.1 | 80 | 30 | 12.5 | 3.1 | 1.6 | 12.5 to 25 | 1.6 | 50 | 6.25 to 12.5 | 70 | 52 | 37 | 12.5 |
